From ChEMBL document CHEMBL1201862, “PubChem BioAssay data set” (2004)
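Grown in 96-well plates, cells were treated for 48 hours with each compound at five concentrations. Insufficient inhibition: endpoint recorded as highest concentration tested. Abbreviation: GI50, concentration required for 50% inhibition of growth.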 Active and inactive are the calls of the source. Cut-off read from the data, not from the text of the source: active = GI50 up to about 1.1 µM and inactive = higher.

Legend:
Test in all cases: NCI-60 cell line screen, 48 h
BT-549 = tested on: BT-549
DMS-114 = tested on: DMS-114
LXFL 529 = tested on: LXFL 529
DMS-273 = tested on: DMS-273
DLD-1 = tested on: DLD-1
HOP-18 = tested on: HOP-18
KM-20L2 = tested on: KM-20L2
XF498 = tested on: XF498

O=C(/C=C/c1cc(F)ccc1F)OCCc1ccccc1
GI50 (BT-549): > 100 µM (inactive)

CC1(C)[C@@H]2C[C@H]1C(Cc1ccc(C[C@H]3c4cc(-c5ccccn5)ncc4[C@H]4C[C@@H]3C4(C)C)cc1)c1cc(-c3ccccn3)ncc12 (stereo partly specified)
GI50 (BT-549): 3.33 µM (inactive)

Cc1cc2c(nn1)CCc1c-2no[n+]1[O-]
GI50 (BT-549): > 100 µM (inactive)

COC1=C2CC(C)CC(OC)C(OC(=O)CN)[C@H](C)/C=C(\C)C(OC(N)=O)C(OC)/C=C\C=C(/C)C(=O)NC(=CC1=O)C2=O (stereo partly specified)
GI50 (BT-549): 1.09 µM (active)

O=c1cc(-c2ccccc2)[nH]c2cc(F)cc(F)c12
GI50 (DMS-114): 24.7 µM (inactive) | GI50 (LXFL 529): 53.6 µM (inactive) | GI50 (DMS-273): 10.3 µM (inactive) | GI50 (DLD-1): 28.5 µM (inactive) | GI50 (HOP-18): 43 µM (inactive)

CCS[C@H]1NC(=O)C1[C@H](C)O[Si](C)(C)C(C)(C)C (stereo partly specified)
GI50 (KM-20L2): > 100 µM (inactive) | GI50 (DMS-114): 84.3 µM (inactive) | GI50 (DMS-273): 97.7 µM (inactive) | GI50 (XF498): > 100 µM (inactive) | GI50 (DLD-1): > 100 µM (inactive) | GI50 (HOP-18): > 100 µM (inactive)

COc1ccc(/N=N/C(=O)NC(CC(C)C)C(=O)NC(C)C(=O)O)cc1 (stereo unspecified)
GI50 (BT-549): 52.8 µM (inactive)

Cc1nc(C(N)=S)sc1C(=O)CC(=O)C(=O)Nc1c(C(C)C)cccc1C(C)C
GI50 (KM-20L2): 41.3 µM (inactive) | GI50 (DMS-114): 26.7 µM (inactive) | GI50 (LXFL 529): 52 µM (inactive) | GI50 (XF498): 24.5 µM (inactive) | GI50 (DLD-1): 55.2 µM (inactive) | GI50 (HOP-18): 35.9 µM (inactive)

O=C1N/C(=N\N=C\c2ccccc2)C(c2ccccc2)O1 (stereo unspecified)
GI50 (BT-549): 33 µM (inactive)

COc1cc(C2c3cc4c(cc3OC(NNC(N)=O)C2C)OCO4)cc(OC)c1O (stereo unspecified)
GI50 (BT-549): 24.5 µM (inactive)

CCCCCCCCCCCCC1NC(=N)NC2(CCCO2)C1C(=O)OC (stereo unspecified)
GI50 (BT-549): 4.3 µM (inactive)

N#CC(C(=O)CCC(=O)Nc1cccc(C(F)(F)F)c1)c1ccccc1 (stereo unspecified)
GI50 (KM-20L2): > 100 µM (inactive) | GI50 (DMS-114): > 100 µM (inactive) | GI50 (LXFL 529): > 100 µM (inactive) | GI50 (DMS-273): > 100 µM (inactive) | GI50 (XF498): > 100 µM (inactive) | GI50 (DLD-1): > 100 µM (inactive)

O=C(O)/C=C/c1nc2ccccc2c(=O)o1
GI50 (KM-20L2): > 100 µM (inactive) | GI50 (DMS-114): > 100 µM (inactive) | GI50 (LXFL 529): > 100 µM (inactive) | GI50 (DMS-273): > 100 µM (inactive) | GI50 (DLD-1): > 100 µM (inactive) | GI50 (HOP-18): > 100 µM (inactive)

O=C(Cc1ccccc1)N/N=C1\C(=O)Nc2ccccc21
GI50 (BT-549): > 100 µM (inactive)

O=C(CN1CCCCC1)c1ccc2[nH]c(=O)oc2c1
GI50 (BT-549): > 100 µM (inactive)

C=C1C(=O)OC2/C=C(\C)CC/C=C(\C)CC(OC(=O)/C(=C/CO)CO)[C@@H]12 (stereo partly specified)
GI50 (BT-549): 12.1 µM (inactive)

NC(=O)CN1C=CCC(C(N)=O)=C1 [CARICOTAMIDE]
GI50 (BT-549): > 100 µM (inactive)

NC(Cc1ccc(O)cn1)C(=O)O (stereo unspecified)
GI50 (BT-549): > 100 µM (inactive)

C=C1C(=O)O[C@H]2C/C(C)=C/CC/C(C)=C/CC[C@@](C)(O)[C@@H](I)C[C@@H]12
GI50 (BT-549): 1.13 µM (inactive)

COc1cc(/C=C/c2csnn2)cc(OC)c1OC
GI50 (DMS-114): > 100 µM (inactive) | GI50 (LXFL 529): > 100 µM (inactive) | GI50 (XF498): > 100 µM (inactive) | GI50 (DLD-1): > 100 µM (inactive) | GI50 (HOP-18): > 100 µM (inactive)

O=C(O)c1cccc(S(=O)(=O)NCCO)c1
GI50 (BT-549): > 100 µM (inactive)

Fc1cc2nc3n(c2cc1F)C(c1c(F)cccc1F)SC3 (stereo unspecified)
GI50 (BT-549): 53.2 µM (inactive)

CC12CC3OC(=O)C1COC14OC5(C2C1=O)C(O)(CCC1C4CC2OC24CC=CC(=O)C14C)C(=O)OC35C (stereo unspecified)
GI50 (BT-549): 2.64 µM (inactive)

O=C(O)C1C2c3ccccc3C(c3ccccc32)C1C(=O)NCC1CC1 (stereo unspecified)
GI50 (BT-549): 60 µM (inactive)

CC(=O)CC(=O)/C=C/c1cccs1
GI50 (KM-20L2): 98.6 µM (inactive) | GI50 (DMS-114): 59.4 µM (inactive) | GI50 (LXFL 529): 85.3 µM (inactive) | GI50 (DLD-1): 44 µM (inactive)

COc1ccc(C2C3=C(Nc4ncnn42)c2ccccc2OC3c2ccccc2)cc1 (stereo unspecified)
GI50 (BT-549): 5.26 µM (inactive)

CCCn1cnc2c(/N=N/O)ncnc21
GI50 (BT-549): > 100 µM (inactive)

O=C(/C=C/c1ccc2c(c1)OCO2)CC(=O)C(=O)c1c[nH]c2ccccc12
GI50 (BT-549): 25.9 µM (inactive)

CNc1ccc(-c2nc3cc(C)ccc3o2)cc1
GI50 (BT-549): 45.8 µM (inactive)

O=C(CN1C(=O)CC(c2ccccc2)(c2ccccc2)C1=O)N1CCN(CCO)CC1
GI50 (BT-549): > 100 µM (inactive)

Nc1nc(N)nc(-c2cnc3ccccc3c2)n1
GI50 (BT-549): > 100 µM (inactive)

O=C(Nc1ccc(Cl)cc1)c1cc(S(=O)(=O)Nc2nnc3c(Cl)cc(C(F)(F)F)cn23)c(S)cc1Cl
GI50 (BT-549): > 100 µM (inactive)

C[C@H]1CC[C@@]2(NC1)O[C@H]1C[C@H]3[C@@H]4CC[C@H]5C[C@@H](O)CC[C@]5(C)[C@H]4CC[C@]3(C)[C@H]1[C@@H]2C
GI50 (BT-549): > 100 µM (inactive)

COc1ccc(/C(C)=N/OC(=O)c2c(-c3ccccc3Cl)noc2C)cc1CN1CCOCC1
GI50 (BT-549): 22.2 µM (inactive)

CN(C)c1ccc2nc(CC(O)(C(F)(F)F)C(F)(F)F)ccc2c1
GI50 (BT-549): > 10 µM (inactive)

COc1ccc(OC)c2c1C[C@@H]1C(C#N)N3[C@H](Cc4c(OC)ccc(OC)c4[C@@H]3C)C(=O)N1[C@H]2C (stereo partly specified)
GI50 (BT-549): 1.97 µM (inactive)

O=C(NC1(C(=O)O)CCCC1)c1ccccc1
GI50 (BT-549): > 100 µM (inactive)

O=C(O)CCSCc1ccc(I)cc1
GI50 (BT-549): > 100 µM (inactive)

CCOC(=O)CN1C(=O)c2cccc3cc([N+](=O)[O-])cc(c23)C1=O
GI50 (KM-20L2): 13.3 µM (inactive) | GI50 (DMS-114): 2.28 µM (inactive) | GI50 (LXFL 529): 1.71 µM (inactive) | GI50 (XF498): 2.03 µM (inactive) | GI50 (DLD-1): 2.21 µM (inactive) | GI50 (HOP-18): 19.7 µM (inactive)

CCCCN(c1ccccc1)c1ncnc2c1cnn2C
GI50 (BT-549): 20.3 µM (inactive)

O=c1c(C(c2ccccc2)c2c(O)oc3cc(O)ccc3c2=O)c(O)oc2cc(O)ccc12
GI50 (BT-549): > 100 µM (inactive)

Oc1cc(-c2ccc3ccccc3c2)nc2ncccc12
GI50 (BT-549): 9.93 µM (inactive)

COc1cccc2c1CCc1c(-c3ccc(F)cc3)cc(-c3ccc4ccccc4n3)nc1-2
GI50 (BT-549): > 100 µM (inactive)

O=C(CC1(O)C(=O)Nc2ccccc21)c1ccc(O)cc1O (stereo unspecified)
GI50 (KM-20L2): > 100 µM (inactive) | GI50 (DMS-114): > 100 µM (inactive) | GI50 (LXFL 529): > 100 µM (inactive) | GI50 (DMS-273): > 100 µM (inactive) | GI50 (XF498): > 100 µM (inactive) | GI50 (DLD-1): > 100 µM (inactive)

c1ccc(C2=NOC3C4CCC(C4)C23)cc1 (stereo unspecified)
GI50 (DMS-114): > 100 µM (inactive) | GI50 (LXFL 529): > 100 µM (inactive) | GI50 (DMS-273): > 100 µM (inactive) | GI50 (DLD-1): > 100 µM (inactive) | GI50 (HOP-18): > 100 µM (inactive)

COc1cccc2c1C(=O)c1c(O)c3c(c(O)c1C2=O)C[C@@](O)(C(=O)CO)CC3OC1CC(N)C(OC2CCCCO2)C(C)O1 (stereo partly specified)
GI50 (KM-20L2): 0.561 µM (active) | GI50 (LXFL 529): 0.668 µM (active) | GI50 (BT-549): 0.176 µM (active) | GI50 (DMS-273): 0.308 µM (active) | GI50 (XF498): 0.54 µM (active) | GI50 (DLD-1): 1.82 µM (inactive) | GI50 (HOP-18): 0.0977 µM (active)

OC(c1ccc(-c2ccccc2)cc1)(c1ccc(-c2ccccc2)cc1)c1ccc(-c2ccccc2)cc1
GI50 (BT-549): > 100 µM (inactive)

O=C(c1ccccc1)C(Nc1ccc2ccccc2c1)c1ccccc1 (stereo unspecified)
GI50 (BT-549): 32.1 µM (inactive)

O=c1cc(NNc2ccc3ccccc3c2)[nH]c(=S)[nH]1
GI50 (BT-549): 39.6 µM (inactive)

COC(=O)CC1N/C(=N\C#N)N(CCc2c[nH]c3ccccc23)C1=O (stereo unspecified)
GI50 (KM-20L2): > 100 µM (inactive) | GI50 (DMS-114): > 100 µM (inactive) | GI50 (LXFL 529): > 100 µM (inactive) | GI50 (DMS-273): > 100 µM (inactive) | GI50 (XF498): > 100 µM (inactive) | GI50 (DLD-1): > 100 µM (inactive)

CC(C)C(/C=C/c1ccc(Cl)cc1)=N\NC(=S)NN
GI50 (BT-549): 23.1 µM (inactive)

Clc1ccc(Cc2nc3cc(CCN4CCN(c5ccccc5)CC4)ccc3[nH]2)cc1
GI50 (BT-549): 16.4 µM (inactive)

CC1CCC(=O)C(C(=O)CC2CC(=O)N(C)C(=O)C2)C1 (stereo unspecified)
GI50 (BT-549): > 100 µM (inactive)

Cc1cccc(/C=C2\CCCCCC2=O)c1
GI50 (BT-549): > 100 µM (inactive)

Cc1ccc(C(=O)C(Cl)C(Cl)c2ccc(C)cc2)cc1 (stereo unspecified)
GI50 (BT-549): 3.78 µM (inactive)
